Values after ≈ are worked out from the molar mass of the structure shown. Active and inactive are the calls of the source. No cut-off for these calls is given here.
Experiments:
RKO [1] = assay: Antiproliferative activity against human RKO cells assessed reduction in cell viability at 0.3 uM measured after 5 days by MTT assay; assay type: functional, cell-based
[2] = molecular target: Tankyrase 1/2 (Homo sapiens) (UniProt Q9H2K2+O95271); assay: Inhibition of TNKS/TNKS2 in human COLO320DM cells assessed as upregulation of AXIN2 expression at 0.1 uM measured after 16 hrs by Western blot analysis relative to G007-LK; assay type: cell-based
in vitro [3] = settings: mouse, liver microsomes
Description: Stability in mouse liver microsomes assessed as parent compound remaining at 1 uM measured after 30 mins in presence of NADPH by LC-MS/MS analysis

[4] = molecular target: Poly [ADP-ribose] polymerase 1 (Homo sapiens, UniProt P09874)
Description: Inhibition of recombinant human PARP1 expressed in Escherichia coli assessed as reduction in auto-PARylation using histone as substrate measured after 45 mins in presence of biotinylated-NAD+ by ELISA

COLO 320DM [5] = assay: Antiproliferative activity against human COLO320DM cells assessed inhibition of cell growth measured after 5 days by MTT assay; assay type: functional; settings: 120 h
[6] = AUC (infinity) in ICR mouse at 50 mg/kg, ip; assay type: ADME, organism-based; parameters: dose 50 mg/kg, route intraperitoneal, time infinity; settings: in vivo
COLO 320DM [7] = assay: cells; settings: Homo sapiens, 96 h
Description: Antiproliferative activity against human COLO320DM cells assessed as inhibition of cell growth measured after 4 days by CellTiter-Glo assay

[8] = molecular target: T1, Poly [ADP-ribose] polymerase tankyrase-1 (Homo sapiens, UniProt O95271)
T1 sequence (O95271 whole entry): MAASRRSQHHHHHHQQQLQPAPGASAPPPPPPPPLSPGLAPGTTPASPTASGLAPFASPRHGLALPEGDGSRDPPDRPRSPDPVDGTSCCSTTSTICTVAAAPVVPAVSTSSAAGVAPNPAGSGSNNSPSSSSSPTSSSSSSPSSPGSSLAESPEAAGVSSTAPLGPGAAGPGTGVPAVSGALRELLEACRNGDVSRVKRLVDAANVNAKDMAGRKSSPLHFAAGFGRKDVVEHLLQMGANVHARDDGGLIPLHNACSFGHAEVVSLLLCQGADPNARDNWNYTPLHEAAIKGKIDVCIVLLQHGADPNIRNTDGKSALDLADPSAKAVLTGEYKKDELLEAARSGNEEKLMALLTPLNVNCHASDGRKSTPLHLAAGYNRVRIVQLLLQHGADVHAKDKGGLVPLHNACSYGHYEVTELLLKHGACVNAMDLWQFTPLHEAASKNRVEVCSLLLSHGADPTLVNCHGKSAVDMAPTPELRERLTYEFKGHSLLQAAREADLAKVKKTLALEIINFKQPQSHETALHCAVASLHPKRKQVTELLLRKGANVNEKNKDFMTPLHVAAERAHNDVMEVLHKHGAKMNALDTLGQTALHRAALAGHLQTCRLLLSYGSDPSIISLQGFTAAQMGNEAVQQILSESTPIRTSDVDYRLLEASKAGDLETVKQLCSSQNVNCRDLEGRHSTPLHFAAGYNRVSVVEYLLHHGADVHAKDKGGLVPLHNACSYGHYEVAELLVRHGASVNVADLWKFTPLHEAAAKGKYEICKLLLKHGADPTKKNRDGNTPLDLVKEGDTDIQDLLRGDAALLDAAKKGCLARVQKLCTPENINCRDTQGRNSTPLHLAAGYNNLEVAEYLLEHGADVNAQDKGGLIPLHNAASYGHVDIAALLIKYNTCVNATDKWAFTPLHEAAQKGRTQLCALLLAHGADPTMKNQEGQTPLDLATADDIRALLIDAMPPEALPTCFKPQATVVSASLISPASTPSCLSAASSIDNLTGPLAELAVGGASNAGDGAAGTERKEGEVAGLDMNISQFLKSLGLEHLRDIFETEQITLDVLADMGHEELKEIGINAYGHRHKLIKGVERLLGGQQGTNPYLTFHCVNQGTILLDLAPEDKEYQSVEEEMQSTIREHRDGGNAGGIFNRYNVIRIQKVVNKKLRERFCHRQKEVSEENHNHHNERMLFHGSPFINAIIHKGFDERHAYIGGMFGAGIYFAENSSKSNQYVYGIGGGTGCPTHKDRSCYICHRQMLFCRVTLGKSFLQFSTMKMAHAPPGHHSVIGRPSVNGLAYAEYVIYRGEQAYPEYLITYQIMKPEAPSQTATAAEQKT
Description: Inhibition of recombinant human N-terminal TEV cleavage site-fused/FLAG-poly his-tagged TNKS SAM-PARP domain (1024 to 1327 residues) expressed in Escherichia coli assessed as reduction in auto-PARylation preincubated for 10 mins followed by biotinylated-NAD+ addition and measured after 45 mins by ELISA

RKO [9] = assay: Antiproliferative activity against human RKO cells assessed inhibition of cell growth measured after 5 days by MTT assay; assay type: functional; settings: 120 h
[10] = Cmax in ICR mouse at 50 mg/kg, ip; assay type: ADME, organism-based; parameters: dose 50 mg/kg, route intraperitoneal; settings: in vivo
[11] = Permeability of the compound by PAMPA; assay type: ADME; settings: read-out: permeability
[12] = Protein binding in human serum assessed as unbound fraction at 1 uM measured after 24 hrs by LC-MS/MS analysis; assay type: ADME, cell-free
in vitro [13] = settings: human, liver microsomes
Description: Stability in human liver microsomes assessed as parent compound remaining at 1 uM measured after 30 mins in presence of NADPH by LC-MS/MS analysis

[14] = Protein binding in mouse serum assessed as unbound fraction at 1 uM measured after 24 hrs by LC-MS/MS analysis; assay type: ADME, cell-free
Tankyrase 1/2 = molecular target: T2, Tankyrase 1/2 (Homo sapiens, UniProt Q9H2K2+O95271)
T2 sequence (Q9H2K2 whole entry): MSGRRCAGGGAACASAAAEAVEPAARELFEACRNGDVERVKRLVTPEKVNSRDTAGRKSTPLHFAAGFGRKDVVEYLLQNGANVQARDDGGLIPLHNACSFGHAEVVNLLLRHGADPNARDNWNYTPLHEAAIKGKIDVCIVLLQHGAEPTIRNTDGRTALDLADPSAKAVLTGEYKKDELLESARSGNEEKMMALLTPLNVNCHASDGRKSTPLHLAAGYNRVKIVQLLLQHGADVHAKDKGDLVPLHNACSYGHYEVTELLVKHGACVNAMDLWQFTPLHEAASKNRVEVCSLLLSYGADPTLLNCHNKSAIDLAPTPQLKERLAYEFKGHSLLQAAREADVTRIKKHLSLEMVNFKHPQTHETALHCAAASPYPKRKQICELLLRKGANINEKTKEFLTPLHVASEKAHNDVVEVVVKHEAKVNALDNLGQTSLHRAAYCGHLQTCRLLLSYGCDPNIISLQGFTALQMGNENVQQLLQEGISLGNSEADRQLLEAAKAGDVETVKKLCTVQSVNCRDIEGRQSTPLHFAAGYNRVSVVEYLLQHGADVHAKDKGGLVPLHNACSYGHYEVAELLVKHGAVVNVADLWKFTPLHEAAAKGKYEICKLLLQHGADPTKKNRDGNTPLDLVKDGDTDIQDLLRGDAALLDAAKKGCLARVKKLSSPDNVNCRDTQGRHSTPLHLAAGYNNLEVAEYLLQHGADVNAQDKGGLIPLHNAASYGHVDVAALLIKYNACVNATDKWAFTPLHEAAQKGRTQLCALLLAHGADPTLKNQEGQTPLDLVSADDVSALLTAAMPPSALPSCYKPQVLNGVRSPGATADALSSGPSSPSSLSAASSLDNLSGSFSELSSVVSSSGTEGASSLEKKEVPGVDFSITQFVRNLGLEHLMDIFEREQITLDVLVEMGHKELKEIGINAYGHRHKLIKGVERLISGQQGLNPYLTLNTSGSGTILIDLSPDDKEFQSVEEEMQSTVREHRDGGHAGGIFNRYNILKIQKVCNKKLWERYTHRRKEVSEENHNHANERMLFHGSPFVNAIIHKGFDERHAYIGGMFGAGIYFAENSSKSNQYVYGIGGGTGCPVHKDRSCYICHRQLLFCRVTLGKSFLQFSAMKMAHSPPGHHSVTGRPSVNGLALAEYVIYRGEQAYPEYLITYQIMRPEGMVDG
T2 sequence (O95271 whole entry): T1 sequence (O95271 whole entry)
Description: Inhibition of TNKS/TNKS2 (unknown origin) expressed in human DLD1 cells assessed as reduction in Wnt-signaling measured after 24 hrs by TCF-luciferase reporter gene assay

[15] = molecular target: T3, Poly [ADP-ribose] polymerase tankyrase-2 (Homo sapiens, UniProt Q9H2K2)
T3 sequence (Q9H2K2 whole entry): T2 sequence (Q9H2K2 whole entry)
Description: Inhibition of recombinant human N-terminal TEV cleavage site-fused/FLAG-poly his-tagged TNKS2 SAM-PARP domain (613 to 1166 residues) expressed in Escherichia coli assessed as reduction in auto-PARylation preincubated for 10 mins followed by biotinylated-NAD+ addition and measured after 45 mins by ELISA

[16] = Half life in ICR mouse at 50 mg/kg, ip; assay type: ADME, organism-based; settings: in vivo
physchem = settings: phosphate buffer, pH 7.4

Chain of Poly [ADP-ribose] polymerase 1 (P09874 whole entry): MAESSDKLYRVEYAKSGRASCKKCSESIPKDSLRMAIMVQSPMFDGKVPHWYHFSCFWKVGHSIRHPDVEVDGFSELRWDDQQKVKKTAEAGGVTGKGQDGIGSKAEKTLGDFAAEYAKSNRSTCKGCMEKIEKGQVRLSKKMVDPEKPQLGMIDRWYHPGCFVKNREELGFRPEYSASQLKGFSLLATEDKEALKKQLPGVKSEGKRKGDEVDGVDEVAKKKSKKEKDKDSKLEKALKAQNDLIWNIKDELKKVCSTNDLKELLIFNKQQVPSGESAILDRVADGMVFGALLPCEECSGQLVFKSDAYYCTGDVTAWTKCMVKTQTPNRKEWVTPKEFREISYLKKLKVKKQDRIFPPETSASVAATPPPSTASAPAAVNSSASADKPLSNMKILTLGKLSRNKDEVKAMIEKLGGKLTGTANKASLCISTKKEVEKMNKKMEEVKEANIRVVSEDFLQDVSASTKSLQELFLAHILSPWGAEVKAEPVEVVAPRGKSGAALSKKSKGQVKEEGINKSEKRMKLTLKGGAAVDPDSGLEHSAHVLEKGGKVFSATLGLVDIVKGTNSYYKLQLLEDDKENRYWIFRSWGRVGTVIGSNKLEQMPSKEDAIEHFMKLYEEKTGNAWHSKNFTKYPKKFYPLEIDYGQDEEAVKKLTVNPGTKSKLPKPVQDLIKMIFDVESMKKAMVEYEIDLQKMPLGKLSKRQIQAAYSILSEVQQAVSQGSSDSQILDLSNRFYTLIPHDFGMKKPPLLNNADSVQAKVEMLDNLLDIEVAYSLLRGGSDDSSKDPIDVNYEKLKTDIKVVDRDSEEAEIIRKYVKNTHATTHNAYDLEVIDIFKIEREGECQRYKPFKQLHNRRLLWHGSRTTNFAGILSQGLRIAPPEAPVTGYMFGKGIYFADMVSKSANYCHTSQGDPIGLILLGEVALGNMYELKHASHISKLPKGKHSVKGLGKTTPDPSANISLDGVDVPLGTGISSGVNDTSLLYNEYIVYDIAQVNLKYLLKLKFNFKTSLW

Row | Compound | Activity (RKO [1]) | fold change (FC) [2] | remaining at 0.5 h, 1 µM (in vitro [3]) [%] | IC50 [4] [µM] | GI50 (COLO 320DM [5]) [nM] | AUC(0-inf) [6] [µM·h] | GI50 (COLO 320DM [7]) [nM] | IC50 [8] [nM] | GI50 (RKO [9]) [µM] | Cmax [10] [µM] | Papp [11] [×10⁻⁶ cm/s] | fraction unbound at 24 h, 1 µM [12] | remaining at 0.5 h, 1 µM (in vitro [13]) [%] | fraction unbound at 24 h, 1 µM [14] | IC50 (Tankyrase 1/2) [nM] | IC50 [15] [nM] | half-life [16] [min] | solubility at 1 h, 200 µM (physchem) [µg/mL] | Fu ([12]; 24 h, 1 µM) [%]
1 | O=C1N(CCO)c2cc(F)cc(F)c2C12CCN(c1nc3c(c(=O)[nH]1)CCCC3)CC2 | Active | 3.93 | 39.1 | > 20 | 470 | 106 | 2400 | 10 | > 10 | 48.1 | 7.9 | 0.017 | 39.5 | 0.077 | 79.4 | 15.1 | 216 | 76.9 (≈ 179 µM) | –
2 | O=c1[nH]c(N2CCC3(CC2)CN(CCO)c2cccc(Cl)c23)nc2c1CCCC2 | Active | 4.86 | 1.1 | > 20 | 300 | 667 | 1500 | 16.6 | > 10 | 75.6 | – | 0.009 | 6.1 | 0.01 | 52.9 | 17 | 288 | 2.5 (≈ 6.03 µM) | –
3 | O=C1N(CCO)c2cccc(Cl)c2C12CCN(c1nc3c(c(=O)[nH]1)CCCC3)CC2 | Active | 5.75 | 19.1 | > 20 | 250 | 157 | 1000 | 4.4 | > 10 | 5.35 | 1.1 | 0.018 | 28.9 | 0.042 | 13.9 | 6.8 | 246 | 84.5 (≈ 197 µM) | –
4 | Oc1nc(-c2ccc(C(F)(F)F)cc2)nc2c1CSCC2 | – | – | 0 | – | – | – | 17000 | – | – | – | 3.24 | – | 78.4 | 0.086 | – | – | – | 0.4 (≈ 1.28 µM) | 0.6

— ChEMBL document CHEMBL4387706, “Discovery of Novel Spiroindoline Derivatives as Selective Tankyrase Inhibitors” (J Med Chem, 2019)
